According to patent US7482363B2, “Piperidine derivatives useful as modulators of chemokine receptor activity” (AstraZeneca AB, priority 2002, dated 2009):

What was measured:
[1] = tested on: Human eosinophils (eotaxin mediated chemotaxis); assay: Human eosinophil chemotaxis; type: cell-based
Procedure: Human Eosinophil Chemotaxis
Human eosinophils were isolated from EDTA anticoagulated peripheral blood as previously described (Hansel et al., J. Immunol. Methods, 1991, 145, 105-110). The cells were resuspended at 10×10^6 ml^−1 in RPMI containing 200 IU/ml penicillin, 200 μg/ml streptomycin sulphate and supplemented with 10% HIFCS, at room temperature.
Eosinophils (700 μl) were pre-incubated for 15 mins at 37° C. with 7 μl of either vehicle or compound (100× required final concentration in 10% DMSO). The chemotaxis plate (ChemoTx, 3 μm pore, Neuroprobe) was loaded by adding 28 μl of a concentration of eotaxin (0.1 to 100 nM) containing a concentration of a compound according to the Examples or solvent to the lower wells of the chemotaxis plate. The filter was then placed over the wells and 25 μl of eosinophil suspension were added to the top of the filter. The plate was incubated for 1 hr at 37° C. in a humidified incubator with a 95% air/5% CO2 atmosphere to allow chemotaxis.
The medium, containing cells that had not migrated, was carefully aspirated from above the filter and discarded. The filter was washed once with phosphate buffered saline (PBS) containing 5 mM EDTA to remove any adherent cells. […] The number of eosinophils migrating was quantified according to the method of Strath et al., J. Immunol. […]

human H1 receptor = target: T1, human H1 receptor (Homo sapiens, UniProt P35367); assay: Histamine H1 receptor binding, competition displacement of [3H]-pyrilamine; settings: 1 nM [3H]-pyrilamine, membranes of recombinant CHO-K1 cells expressing the human H1 receptor; read-out: H1 antagonism pKi (converted)
T1 construct: purchased Euroscreen SA, Brussels, Belgium ES-390-M; host or cells: CHO-K1
Procedure: Histamine H1 receptor binding activity of compounds of the invention was assessed by competition displacement of 1 nM [3H]-pyrilamine (Amersham, Bucks, Product code TRK 608, specific activity 30 Ci/mmol) to 2 μg membranes prepared from recombinant CHO-K1 cells expressing the human H1 receptor (Euroscreen SA, Brussels, Belgium, product code ES-390-M) in assay buffer (50 mM Tris pH 7.4 containing 2 mM MgCl2, 250 mM sucrose and 100 mM NaCl) for 1 hour at room temperature.

T1 sequence (P35367 whole entry): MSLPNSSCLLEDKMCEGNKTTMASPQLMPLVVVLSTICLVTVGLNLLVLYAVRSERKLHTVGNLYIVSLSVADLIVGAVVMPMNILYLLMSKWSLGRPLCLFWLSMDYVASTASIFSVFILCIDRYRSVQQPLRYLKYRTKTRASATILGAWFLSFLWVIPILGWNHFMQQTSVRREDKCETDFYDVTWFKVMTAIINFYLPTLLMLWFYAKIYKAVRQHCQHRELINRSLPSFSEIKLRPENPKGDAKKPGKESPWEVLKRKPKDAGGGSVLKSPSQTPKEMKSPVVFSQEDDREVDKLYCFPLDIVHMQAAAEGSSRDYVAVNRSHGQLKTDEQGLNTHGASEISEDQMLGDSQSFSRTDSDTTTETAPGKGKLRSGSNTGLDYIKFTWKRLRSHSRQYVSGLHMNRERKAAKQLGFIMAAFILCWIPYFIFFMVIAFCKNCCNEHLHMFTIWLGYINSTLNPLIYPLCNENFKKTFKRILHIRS

Ki (human H1 receptor) [nM]	Compound	% Inhibition (3 nM Human Eotaxin) [1] [%]
158	COc1cccc(OC)c1C(C(=O)O)N1CCC(N2CCC(Oc3ccc(Cl)c(Cl)c3)CC2)CC1 (stereo not drawn) [Example 2, 4-(3,4-dichlorophenoxy)-α-(2,6-dimethoxyphenyl)-[1,4′-bipiperidine]-1′-acetic acid]	90
50.1	Cc1cc(Cl)ccc1OC1CCN(C2CCN(C(C(=O)O)c3ccccc3)CC2)CC1 (stereo not drawn) [Example 3, 4-(4-chloro-2-methylphenoxy)-α-phenyl-[1,4′-bipiperidine]-1′-acetic acid]	105
